Among the data in article PMC8584989 (International Journal of Molecular Sciences, 2021) are IC50 values, retold here.

In one assay the test system is MDCKII-ABCB1 cells. The assay is described as follows: MTT proliferation / drug combination assay. The note with it: Canis lupus familiaris, read-out: IC50 (IC50-shift analysis).
The subject of another assay is HL60-ABCB1 cells. As to the kind of experiment: XTT proliferation / drug combination assay. The note with it: read-out: IC50 (IC50-shift analysis). In general terms: Tetrazolium dyes change colour on reduction, which living cells bring about.
In the next assay the test system is A431-par cells. As to the kind of experiment: MTT proliferation / drug combination assay. The assay is classed as cell-based. The following applies: read-out: IC50 (IC50-shift analysis). The method, then: (§1) These colorimetric assays were used in various studies presented in this paper (prior induction studies, MDR reversal experiments and comparative viability assays) and were performed as reported previously. […] In MTT experiments, cells were seeded on a 96-well culture plate at densities (in number of cells/well) of 1.3 × 10^4 for MDCKII-par, MDCKII-ABCB1 and MDCKII-ABCG2; 1.2 × 10^4 for A431-par, A431-ABCB1, A431-ABCG2 and A431-ABCC1; 1.2 × 10^4 for NCI-H1299; 1.0 × 10^4 for A459; 2.0 × 10^4 for Caco-2; 5.0 × 10^4 for LS174T; and 1.0 × 10^4 for primary NSCLC explants. On the other hand, for XTT cells were seeded with densities 2.0 × 10^4 for HL60-par, HL60-ABCB1, HL60-ABCG2 and HL60-ABCC1 cells/well on 96-well plates. […] Following 48 h incubation with drugs, Opti-MEM solutions of MTT or XTT (1 mg/mL) with phenazine methosulfate solution (7.50 μg/mL; only for XTT) was added and the cells were incubated for 1 h with the exception of HL60s that were incubated for 5 h.
(§2) Based on the computed CI values, the effects of drug combinations were classified as synergistic (CI < 0.9), additive (0.9 < CI < 1.1) or antagonistic (CI > 1.1).

For another assay, the system named is MDCKII-parent cells. As to the kind of experiment: MTT proliferation / drug combination assay. It is filed as cell-based, canine. The following applies: Canis lupus familiaris, read-out: IC50 (IC50-shift analysis). How it is done: as §1, §2
The test system of another assay is A431-ABCB1 cells. The assay is described as follows: MTT proliferation / drug combination assay. The note with it: read-out: IC50 (IC50-shift analysis).
The next assay has as its system HL60-par cells. The assay is described as follows: XTT proliferation / drug combination assay. The assay is classed as cell-based. The note with it: read-out: IC50 (IC50-shift analysis). How it is done:
as §1, §2

The subject of the next assay is A431-ABCG2 cells. The assay is described as follows: MTT proliferation / drug combination assay. The following applies: read-out: IC50 (IC50-shift analysis).
The test system of a further assay is HL60-ABCG2 cells. The assay is described as follows: XTT proliferation / drug combination assay. The note with it: read-out: IC50 (IC50-shift analysis).

In the case of `COc1cccc2c1C(=O)c1c(O)c3c(c(O)c1C2=O)C[C@@](O)(C(C)=O)C[C@@H]3O[C@H]1C[C@H](N)[C@H](O)[C@H](C)O1` [daunorubicin], the IC50 stood at 11900 nM in the assay on MDCKII-ABCB1 cells; 2140 nM with HL60-ABCB1 cells; 1990 nM with A431-par cells; 947 nM in the assay with MDCKII-parent cells; 21700 nM with A431-ABCB1 cells; 53.1 nM in the assay with HL60-par cells.
For `O=C1c2c(O)ccc(O)c2C(=O)c2c(NCCNCCO)ccc(NCCNCCO)c21` [mitoxantrone], the IC50 was 2100 nM in the assay on A431-par cells, 56500 nM with A431-ABCG2 cells, 669 nM in the assay with HL60-ABCG2 cells and 30.5 nM in the assay on HL60-par cells.
